# Measurements from ChEMBL document CHEMBL6103580, “Synthesis and biological evaluation of natural cleistanolate, its enantiomer and analogues” (Eur J Med Chem, 2025).
# Activity calls are given as the source filed them. The rule behind the calls is not given here.
# How the values were obtained:
# Jurkat = assay: Antiproliferative activity against human Jurkat cells assessed as inhibition of cell growth incubated for 72 hrs by MTT assay; type: functional, cell-based
# Raji [1] = assay: Potency index, ratio of cleistanolate IC50 to test compound IC50 for antiproliferative activity against human Raji cells assessed as inhibition of cell growth incubated for 72 hrs by MTT assay; type: functional
# K562 = assay: Antiproliferative activity against human K562 cells assessed as inhibition of cell growth incubated for 72 hrs by MTT assay; type: functional, cell-based; conditions: K562, 72 h
# [2] = Antiproliferative activity against human MRC5 cells assessed as inhibition of cell growth incubated for 72 hrs by MTT assay; type: toxicity, cell-based
# MDA-MB-231 = assay: Antiproliferative activity against human MDA-MB-231 cells assessed as inhibition of cell growth incubated for 72 hrs by MTT assay; type: functional, cell-based; conditions: MDA-MB-231, 72 h
# Raji [3] = assay: Antiproliferative activity against human Raji cells assessed as inhibition of cell growth incubated for 72 hrs by MTT assay; type: functional, cell-based
# A549 = assay: Antiproliferative activity against human A549 cells assessed as inhibition of cell growth incubated for 72 hrs by MTT assay; type: functional, cell-based; conditions: A549, 72 h
# MCF7 = assay: Antiproliferative activity against human MCF7 cells assessed as inhibition of cell growth incubated for 72 hrs by MTT assay; type: functional, cell-based; conditions: MCF7, 72 h
# HeLa = assay: Antiproliferative activity against human HeLa cells assessed as inhibition of cell growth incubated for 72 hrs by MTT assay; type: functional, cell-based
# HL-60 = assay: Antiproliferative activity against human HL-60 cells assessed as inhibition of cell growth incubated for 72 hrs by MTT assay; type: functional, cell-based; conditions: HL-60, 72 h
# Candida tropicalis = assay: Antifungal activity against Candida tropicalis CCY 29-7-62 assessed as reduction in fungal growth incubated for 48 hrs by muller hinton broth microdilution based XTT assay; type: functional
# Vibrio cholerae = assay: Antibacterial activity against Vibrio cholerae O139 CIRS 245 assessed as reduction in cell viability incubated for 24 hrs by muller hinton broth microdilution based XTT assay; type: functional
# [4] = biological target: Cholinesterase (Homo sapiens) (UniProt P06276); assay: Inhibition of human BChE at 100 uM using acetylthiocholine iodide as substrate by DTNB reagent based Ellman spectrophotometric analysis relative to control
# Escherichia coli [5] = assay: Antibacterial activity against Escherichia coli ZPM 132 assessed as reduction in cell viability incubated for 24 hrs by muller hinton broth microdilution based XTT assay; type: functional
# Streptococcus pneumoniae = assay: Antibacterial activity against Streptococcus pneumoniae ZPM 187 assessed as reduction in cell viability incubated for 24 hrs by muller hinton broth microdilution based XTT assay; type: functional
# Escherichia coli [6] = assay: Antimicrobial activity against Escherichia coli ZPM 132 assessed as reduction in cell viability incubated for 24 hrs by muller hinton broth microdilution based XTT assay; type: functional
# Raji [7] = assay: Potency index, ratio of doxorubicin IC50 to test compound IC50 for antiproliferative activity against human Raji cells assessed as inhibition of cell growth incubated for 72 hrs by MTT assay; type: functional
# [8] = Potency index, ratio of doxorubicin IC50 to test compound IC50 for antiproliferative activity against human HL-60 cells assessed as inhibition of cell growth incubated for 72 hrs by MTT assay; type: functional
# [9] = Potency index, ratio of cleistanolate IC50 to test compound IC50 for antiproliferative activity against human HeLa cells assessed as inhibition of cell growth incubated for 72 hrs by MTT assay; type: functional
# Cholinesterase (Homo sapiens), sequence (P06276 whole entry): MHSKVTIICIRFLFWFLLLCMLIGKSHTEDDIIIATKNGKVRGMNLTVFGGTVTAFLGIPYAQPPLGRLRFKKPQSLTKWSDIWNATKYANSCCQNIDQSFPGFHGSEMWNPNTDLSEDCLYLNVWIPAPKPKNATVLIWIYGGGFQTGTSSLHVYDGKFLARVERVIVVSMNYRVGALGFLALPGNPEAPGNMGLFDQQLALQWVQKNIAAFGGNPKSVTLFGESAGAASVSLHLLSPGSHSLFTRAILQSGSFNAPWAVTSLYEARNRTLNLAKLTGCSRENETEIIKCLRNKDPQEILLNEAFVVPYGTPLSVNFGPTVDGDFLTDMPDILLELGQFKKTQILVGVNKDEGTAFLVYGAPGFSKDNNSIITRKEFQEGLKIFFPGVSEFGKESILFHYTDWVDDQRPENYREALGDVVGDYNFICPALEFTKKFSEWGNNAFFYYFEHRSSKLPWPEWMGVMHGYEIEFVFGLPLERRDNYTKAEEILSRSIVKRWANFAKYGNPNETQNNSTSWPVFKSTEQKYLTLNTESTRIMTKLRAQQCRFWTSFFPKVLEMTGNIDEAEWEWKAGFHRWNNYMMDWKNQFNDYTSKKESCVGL
structure (smiles),measurement,setting,value
CO[C@@H]1CC(=O)O[C@@H]1[C@@H](OC(C)=O)[C@@H](COC(=O)c1ccccc1)OC(C)=O,IC50,Jurkat,22.1 µM
same,Ratio IC50,Raji [1],2.1
same,IC50,K562,7.23 µM
same,IC50 at 72 h,[2],> 100 µM
same,IC50,MDA-MB-231,28.4 µM
same,IC50,Raji [3],31.4 µM
same,IC50,A549,9.78 µM
same,IC50,MCF7,13.5 µM
same,IC50,HeLa,6.31 µM
same,IC50,HL-60,16.5 µM
C=C[C@@H](OCc1ccccc1)[C@@H]1OC(=O)C[C@@H]1O,MFC,Candida tropicalis,> 100 µg/mL
same,IC50,Jurkat,11.3 µM
same,MBC,Vibrio cholerae,> 100 µg/mL
same,IC50,K562,3.95 µM
same,IC50 at 72 h,[2],> 100 µM
same,inhibition,[4],13%
same,IC50,MDA-MB-231,21.3 µM
same,IC50,Raji [3],22.2 µM
same,IC50,A549,22.6 µM
same,MBC,Escherichia coli [5],> 1000 µg/mL
same,IC50,MCF7,9.44 µM
same,IC50,HeLa,54.1 µM
same,MBC,Streptococcus pneumoniae,> 100 µg/mL
same,IC50,HL-60,11.2 µM
same,MIC,Escherichia coli [6],> 1000 µg/mL
O=C1C[C@@H]2O[C@@H](CO)[C@@H](O)[C@@H]2O1,IC50,Jurkat,7.38 µM
same,Ratio IC50,Raji [1],2.1
same,IC50,K562,5.56 µM
same,IC50 at 72 h,[2],> 100 µM
same,IC50,MDA-MB-231,30 µM
same,IC50,Raji [3],10.2 µM
same,IC50,A549,15.9 µM
same,IC50,MCF7,4.02 µM
same,IC50,HeLa,7.26 µM
same,IC50,HL-60,11.2 µM
CO[C@H]1CC(=O)O[C@H]1[C@H](OC(=O)c1ccccc1)[C@@H](COC(=O)c1ccccc1)OC(=O)c1ccccc1,IC50,Jurkat,23.4 µM
same,IC50,K562,17.9 µM
same,IC50 at 72 h,[2],> 100 µM
same,IC50,MDA-MB-231,23.7 µM
same,IC50,Raji [3],17 µM
same,IC50,A549,24.1 µM
same,IC50,MCF7,1.31 µM
same,IC50,HeLa,5.58 µM
same,IC50,HL-60,6.38 µM
O=C1C[C@@H](O)[C@@H]([C@@H](O)[C@H](O)CO)O1,IC50,Jurkat,3.25 µM
same,Ratio IC50,Raji [7],1.1
same,IC50,K562,2.36 µM
same,IC50 at 72 h,[2],> 100 µM
same,IC50,MDA-MB-231,5.32 µM
same,IC50,Raji [3],2.64 µM
same,Ratio IC50,[8],1.3
same,IC50,A549,8.64 µM
same,IC50,MCF7,0.63 µM
same,IC50,HeLa,0.89 µM
same,Ratio IC50,[9],2
same,IC50,HL-60,0.74 µM
C=C[C@@H](OCc1ccccc1)[C@@H]1OC(=O)C[C@@H]1OC,IC50,Jurkat,9.85 µM
same,IC50,K562,4.42 µM
same,IC50 at 72 h,[2],> 100 µM
same,IC50,MDA-MB-231,42.3 µM
same,IC50,Raji [3],12.9 µM
same,IC50,A549,18.7 µM
same,IC50,MCF7,16.9 µM
same,IC50,HeLa,26.4 µM
same,IC50,HL-60,12.1 µM
CO[C@@H]1CC(=O)O[C@@H]1[C@@H](O)[C@@H](O)COC(=O)c1ccccc1,IC50,Jurkat,20.2 µM
same,IC50,K562,11.4 µM
same,IC50 at 72 h,[2],> 100 µM
same,IC50,MDA-MB-231,27.7 µM
same,IC50,Raji [3],15.4 µM
same,IC50,A549,11.4 µM
same,IC50,MCF7,14.4 µM
same,IC50,HeLa,7.65 µM
same,IC50,HL-60,12.1 µM
Nc1c2c(nc3ccccc13)CCCC2,inhibition,[4],96%
CO[C@@H]1CC(=O)O[C@@H]1[C@@H](O)[C@H](O)COC(=O)c1ccccc1,IC50,Jurkat,15.6 µM
same,IC50,K562,10.6 µM
same,IC50 at 72 h,[2],> 100 µM
same,IC50,MDA-MB-231,31.2 µM
same,IC50,Raji [3],19.4 µM
same,IC50,A549,25.6 µM
same,IC50,MCF7,15.6 µM
same,IC50,HeLa,8.61 µM
same,IC50,HL-60,18.9 µM
O=C1C[C@H]2O[C@H](CI)[C@H](O)[C@H]2O1,MFC,Candida tropicalis,> 100 µg/mL
same,MBC,Vibrio cholerae,> 100 µg/mL
same,inhibition,[4],inactive
same,MBC,Escherichia coli [5],> 1000 µg/mL
same,MBC,Streptococcus pneumoniae,> 100 µg/mL
same,MIC,Escherichia coli [6],> 1000 µg/mL
CO[C@H]1CC(=O)O[C@H]1[C@H](O)[C@H](O)COC(=O)c1ccccc1,MFC,Candida tropicalis,> 100 µg/mL
same,IC50,Jurkat,16.5 µM
same,MBC,Vibrio cholerae,> 100 µg/mL
same,IC50,K562,3.97 µM
same,IC50 at 72 h,[2],> 100 µM
same,inhibition,[4],inactive
same,IC50,MDA-MB-231,45.2 µM
same,IC50,Raji [3],19.7 µM
same,IC50,A549,18.7 µM
same,MBC,Escherichia coli [5],> 1000 µg/mL
same,IC50,MCF7,14.1 µM
same,IC50,HeLa,16 µM
same,MBC,Streptococcus pneumoniae,> 100 µg/mL
same,IC50,HL-60,9.45 µM
same,MIC,Escherichia coli [6],> 1000 µg/mL
C=C[C@H](OCc1ccccc1)[C@H]1OC(=O)C[C@H]1O,IC50,Jurkat,29.1 µM
same,IC50,K562,25.1 µM
same,IC50 at 72 h,[2],> 100 µM
same,IC50,MDA-MB-231,12.9 µM
same,IC50,Raji [3],34.8 µM
same,IC50,A549,17.2 µM
same,IC50,MCF7,19.2 µM
same,IC50,HeLa,17 µM
same,IC50,HL-60,23.4 µM
